ChEMBL document CHEMBL6096682, “Discovery of D-Ring-Contracted Artemisinin as a Potent Hydrophobic Tag for Targeted Protein Degradation” (J Med Chem, 2025)
Calls of active or inactive are those of the source. No cut-off for these calls is given here.

Key:
MCF7 [1] = assay: Antitumor activity against human MCF7 cells xenografted in Balb/c mouse assessed as inhibition of tumor growth at 5 mg/kg, iv administered every 3 days and measured for 21 days; assay type: functional; conditions: MCF7, 504 h, time 21 day, read-out: TGI
MCF7 [2] = assay: Antiproliferative activity against human MCF7 cells assessed as reduction in cell viability incubated for 48 hrs by MTT assay; assay type: functional, cell-based; conditions: MCF7, 48 h
MCF7 [3] = assay: Antiproliferative activity against human MCF7 cells assessed as reduction in cell viability incubated for 48 hrs by MTT assay relative to control; assay type: functional
[4] = molecular target: T1, Estrogen receptor (Homo sapiens) (UniProt P03372); assay: HyT degrader activity at ER-alpha in human MCF7 cells assessed as induction of ER-alpha degradation by measuring decrease in ER-alpha level at 10 uM incubated for 48 hrs by western blot analysis; assay type: cell-based; parameters: scale not given: the % may be the effect or the level left
T1 sequence (whole entry): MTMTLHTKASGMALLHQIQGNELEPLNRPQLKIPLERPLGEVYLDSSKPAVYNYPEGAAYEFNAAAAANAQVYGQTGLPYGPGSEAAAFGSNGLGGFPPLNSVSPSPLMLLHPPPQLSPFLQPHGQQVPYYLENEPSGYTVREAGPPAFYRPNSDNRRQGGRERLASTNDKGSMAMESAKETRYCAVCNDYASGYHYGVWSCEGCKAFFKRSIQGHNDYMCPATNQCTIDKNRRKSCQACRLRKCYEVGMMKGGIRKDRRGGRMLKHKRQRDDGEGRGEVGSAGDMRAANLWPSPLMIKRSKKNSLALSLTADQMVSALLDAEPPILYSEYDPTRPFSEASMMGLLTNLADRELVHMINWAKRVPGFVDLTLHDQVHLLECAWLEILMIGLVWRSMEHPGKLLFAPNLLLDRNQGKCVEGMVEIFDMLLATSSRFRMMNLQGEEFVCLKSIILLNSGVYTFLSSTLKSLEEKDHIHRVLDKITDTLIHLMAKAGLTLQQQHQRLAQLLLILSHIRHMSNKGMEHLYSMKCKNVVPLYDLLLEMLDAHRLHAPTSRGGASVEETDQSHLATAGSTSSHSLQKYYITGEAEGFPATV

MCF7 [5] = assay: Antiproliferative activity against human MCF7 cells overexpressing ER-alpha Y537S mutant assessed as reduction in cell viability incubated for 48 hrs by MTT assay relative to control; assay type: functional
MCF7 [6] = assay: Antiproliferative activity against human MCF7 cells overexpressing EGFR assessed as reduction in cell viability incubated for 48 hrs by MTT assay; assay type: functional, cell-based; conditions: MCF7, 48 h
MCF7 [7] = assay: Antiproliferative activity against human MCF7 cells overexpressing EGFR assessed as reduction in cell viability incubated for 48 hrs by MTT assay relative to control; assay type: functional
[8] = molecular target: T1, Estrogen receptor (Homo sapiens); assay: HyT degrader activity at ER-alpha in human MCF7 cells assessed as induction of ER-alpha degradation by measuring decrease in ER-alpha level at 10 uM incubated for 48 hrs followed by drug wash-out and measured after 24 hrs by western blot analysis; assay type: cell-based
MCF7 [9] = assay: Antiproliferative activity against human MCF7 cells overexpressing ER-alpha Y537S mutant assessed as reduction in cell viability incubated for 48 hrs by MTT assay; assay type: functional, cell-based; conditions: MCF7, 48 h
[10] = molecular target: Histone deacetylase 1 (Homo sapiens) (UniProt Q13547); assay: HyT degrader activity at HDAC1 in human MCF7 cells assessed as induction of HDAC1 degradation by measuring decrease in HDAC1 level at 0.1 to 50 uM incubated for 24 hrs by immunoblot analysis; assay type: cell-based; conditions: dose 0.1-50 µM
Chain of Histone deacetylase 1 (Homo sapiens) (Q13547 whole entry): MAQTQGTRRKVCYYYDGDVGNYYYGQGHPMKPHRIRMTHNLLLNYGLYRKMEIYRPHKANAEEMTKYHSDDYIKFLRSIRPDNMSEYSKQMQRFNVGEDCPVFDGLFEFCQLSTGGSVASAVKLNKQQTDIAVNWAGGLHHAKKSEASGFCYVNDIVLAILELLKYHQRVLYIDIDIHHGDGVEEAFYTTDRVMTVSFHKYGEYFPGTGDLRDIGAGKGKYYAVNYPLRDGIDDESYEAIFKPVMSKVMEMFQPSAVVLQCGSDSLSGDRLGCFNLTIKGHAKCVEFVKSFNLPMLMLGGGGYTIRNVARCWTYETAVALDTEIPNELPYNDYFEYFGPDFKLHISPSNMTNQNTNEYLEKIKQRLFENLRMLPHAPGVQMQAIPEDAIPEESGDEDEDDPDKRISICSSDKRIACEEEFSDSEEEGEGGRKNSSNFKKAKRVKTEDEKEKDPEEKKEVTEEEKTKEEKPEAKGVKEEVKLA

[11] = molecular target: Histone deacetylase 2 (Homo sapiens) (UniProt Q92769); assay: HyT degrader activity at HDAC2 in human MCF7 cells assessed as induction of HDAC2 degradation by measuring decrease in HDAC2 level at 0.1 to 50 uM incubated for 24 hrs by immunoblot analysis; assay type: cell-based; conditions: dose 0.1-50 µM
Chain of Histone deacetylase 2 (Homo sapiens) (Q92769 whole entry): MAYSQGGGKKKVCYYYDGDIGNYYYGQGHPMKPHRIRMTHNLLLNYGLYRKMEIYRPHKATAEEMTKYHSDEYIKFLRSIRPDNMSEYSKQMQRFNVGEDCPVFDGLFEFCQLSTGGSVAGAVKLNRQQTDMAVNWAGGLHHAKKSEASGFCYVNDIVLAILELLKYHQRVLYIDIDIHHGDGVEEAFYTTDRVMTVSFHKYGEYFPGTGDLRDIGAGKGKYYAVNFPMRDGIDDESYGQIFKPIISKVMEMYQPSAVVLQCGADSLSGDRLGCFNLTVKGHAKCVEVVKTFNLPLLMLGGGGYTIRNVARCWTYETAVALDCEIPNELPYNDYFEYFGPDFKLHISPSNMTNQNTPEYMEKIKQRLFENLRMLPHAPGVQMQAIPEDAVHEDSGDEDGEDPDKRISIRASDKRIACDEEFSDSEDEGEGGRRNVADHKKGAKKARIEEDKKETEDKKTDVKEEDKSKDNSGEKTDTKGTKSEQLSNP

[12] = molecular target: T2, Histone deacetylase (Homo sapiens) (UniProt Q13547+O15379+Q9UBN7+Q92769+Q9UQL6+Q8WUI4+Q9BY41+Q96DB2+P56524+Q9UKV0+Q969S8); assay: HyT degrader activity at HDAC in human MCF7 cells assessed as induction of HDAC degradation by measuring increase in acetylated histone H3 level at 0.1 to 50 uM incubated for 24 hrs by immunoblot analysis; assay type: cell-based; conditions: dose 0.1-50 µM
[13] = molecular target: Histone deacetylase 1 (Homo sapiens) (UniProt Q13547); assay: HyT degrader activity at HDAC1 in human MCF7 cells assessed as induction of HDAC1 degradation at 10 uM incubated for 24 hrs by immunoblot analysis; assay type: cell-based
[14] = molecular target: T3, Protein deacetylase HDAC6 (Homo sapiens) (UniProt Q9UBN7); assay: HyT degrader activity at HDAC6 in human MCF7 cells assessed as induction of HDAC6 degradation by measuring decrease in HDAC6 level at 0.1 to 10 uM incubated for 24 hrs by immunoblot analysis; assay type: cell-based; conditions: dose 0.1-10 µM
T3 sequence (whole entry): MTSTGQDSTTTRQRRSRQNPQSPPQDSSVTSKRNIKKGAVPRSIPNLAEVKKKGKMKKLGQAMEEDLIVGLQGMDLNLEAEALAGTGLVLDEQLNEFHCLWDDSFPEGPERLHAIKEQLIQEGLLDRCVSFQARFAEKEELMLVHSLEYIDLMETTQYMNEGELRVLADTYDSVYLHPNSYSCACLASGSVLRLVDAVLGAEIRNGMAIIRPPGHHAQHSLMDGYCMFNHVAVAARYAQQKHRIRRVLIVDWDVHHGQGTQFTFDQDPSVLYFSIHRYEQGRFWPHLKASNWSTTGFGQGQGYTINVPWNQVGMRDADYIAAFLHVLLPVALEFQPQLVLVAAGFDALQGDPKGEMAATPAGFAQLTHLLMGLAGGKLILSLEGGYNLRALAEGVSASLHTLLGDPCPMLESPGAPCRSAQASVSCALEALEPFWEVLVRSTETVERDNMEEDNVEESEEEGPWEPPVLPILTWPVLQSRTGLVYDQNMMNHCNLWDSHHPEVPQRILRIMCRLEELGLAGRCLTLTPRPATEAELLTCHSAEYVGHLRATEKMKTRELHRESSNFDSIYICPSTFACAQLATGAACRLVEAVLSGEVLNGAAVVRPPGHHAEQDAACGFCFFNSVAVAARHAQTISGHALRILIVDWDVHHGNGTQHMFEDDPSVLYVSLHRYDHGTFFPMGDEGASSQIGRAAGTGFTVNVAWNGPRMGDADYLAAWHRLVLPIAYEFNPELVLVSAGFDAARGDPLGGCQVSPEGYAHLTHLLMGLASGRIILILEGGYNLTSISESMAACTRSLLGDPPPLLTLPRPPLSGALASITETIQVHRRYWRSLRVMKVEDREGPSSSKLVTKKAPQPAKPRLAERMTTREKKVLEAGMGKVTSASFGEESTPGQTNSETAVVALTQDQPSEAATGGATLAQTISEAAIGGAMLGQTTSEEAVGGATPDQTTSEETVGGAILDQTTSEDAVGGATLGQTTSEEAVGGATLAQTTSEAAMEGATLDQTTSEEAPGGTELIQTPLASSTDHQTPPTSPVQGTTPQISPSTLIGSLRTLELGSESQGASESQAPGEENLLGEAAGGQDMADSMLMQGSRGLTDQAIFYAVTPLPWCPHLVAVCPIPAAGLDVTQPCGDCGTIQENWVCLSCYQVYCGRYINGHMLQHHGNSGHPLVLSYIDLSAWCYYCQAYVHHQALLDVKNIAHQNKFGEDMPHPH

[15] = molecular target: T2, Histone deacetylase (Homo sapiens); assay: HyT degrader activity at HDAC in human MCF7 cells assessed as induction of HDAC degradation by measuring increase in acetylated alpha-tubulin level at 0.1 to 50 uM incubated for 24 hrs by immunoblot analysis; assay type: cell-based; conditions: dose 0.1-50 µM
[16] = molecular target: Cyclin-dependent kinase 6 (Homo sapiens) (UniProt Q00534); assay: HyT degrader activity at CDK6 in human MCF7 cells assessed as induction of CDK6 degradation at 0.1 to 10 uM incubated for 24 hrs by immunoblot analysis; assay type: cell-based; conditions: dose 0.1-10 µM
Chain of Cyclin-dependent kinase 6 (Homo sapiens) (Q00534 whole entry): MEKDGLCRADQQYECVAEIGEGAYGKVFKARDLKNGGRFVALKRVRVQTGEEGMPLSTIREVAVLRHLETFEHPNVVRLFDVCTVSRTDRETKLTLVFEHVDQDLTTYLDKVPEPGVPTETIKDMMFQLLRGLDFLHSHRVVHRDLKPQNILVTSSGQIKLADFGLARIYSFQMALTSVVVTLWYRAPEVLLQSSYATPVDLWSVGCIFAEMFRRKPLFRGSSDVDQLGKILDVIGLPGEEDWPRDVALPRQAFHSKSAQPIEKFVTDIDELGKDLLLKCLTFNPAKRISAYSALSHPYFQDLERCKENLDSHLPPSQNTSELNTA

[17] = molecular target: Cyclin-dependent kinase 6 (Homo sapiens) (UniProt Q00534); assay: HyT degrader activity at CDK6 in human MCF7 cells assessed as induction of CDK6 degradation at 10 uM incubated for 24 hrs by immunoblot analysis; assay type: cell-based

## C[C@]12CC[C@@H]3c4ccc(O)cc4C[C@@H](CCCCCCCCC[S+]([O-])CCCC(F)(F)C(F)(F)F)[C@H]3[C@@H]1CC[C@@H]2O (stereo partly specified) [FULVESTRANT]
MCF7 [1]
  inhibition in vivo at 5 mg/kg: 87%

## C[C@@H]1CCC2[C@]34OO[C@](C)(CCC13)O[C@@H]4O[C@]2(C)C(=O)NCCCCCCOc1ccc(C(=O)c2c(-c3ccc(O)cc3)sc3cc(O)ccc23)cc1 (stereo partly specified)
MCF7 [2]
  IC50: 45.7 µM
MCF7 [3]
  inhibition (INH): 57.1%

## O=C(c1ccc(OCCCNC(=O)C23CC4CC(CC(C4)C2)C3)cc1)c1c(-c2ccc(O)cc2)sc2cc(O)ccc12
[4]
  Activity: 77.5%
MCF7 [5]
  inhibition (INH): 41.7%
MCF7 [6]
  IC50: 16 µM
MCF7 [7]
  inhibition (INH): 57.9%
MCF7 [2]
  IC50: 9.54 µM
[8]
  Activity: Active
MCF7 [3]
  inhibition (INH): 70.8%
MCF7 [9]
  IC50: > 50 µM

## C[C@@H]1CCC2[C@]34OO[C@](C)(CCC13)OC4O[C@]2(C)C(=O)NCCCC(=O)Nc1ccc(NC(=O)CCCCCCC(=O)NO)cc1 (single isomer, unassigned)
[10]
  Activity: Active
[11]
  Activity: Active
MCF7 [2]
  IC50: 5.26 µM
[12]
  Activity: Active
[13]
  Activity: 84%
[14]
  Activity: Active
[15]
  Activity: Active

## CC(=O)c1c(C)c2cnc(NCCCNC(=O)[C@@]3(C)OC4O[C@@]5(C)CCC6[C@H](C)CCC3[C@@]46OO5)nc2n(C2CCCC2)c1=O (single isomer, unassigned)
MCF7 [2]
  IC50: 5 µM
[16]
  Activity: Active
[17]
  Activity: 73%

## O=C(c1ccc(OCCN2CCCCC2)cc1)c1c(-c2ccc(O)cc2)sc2cc(O)ccc12 [RALOXIFENE]
MCF7 [1]
  inhibition in vivo at 5 mg/kg: 68.8%

## C[C@@H]1CCC2[C@]34OO[C@](C)(CCC13)OC4O[C@]2(C)C(=O)NCCOc1ccc(C(=O)c2c(-c3ccc(O)cc3)sc3cc(O)ccc23)cc1 (single isomer, unassigned)
MCF7 [2]
  IC50: > 100 µM
MCF7 [3]
  inhibition (INH): 42.6%

## C[C@@H]1CCC2[C@]34OO[C@](C)(CCC13)O[C@@H]4O[C@]2(C)C(=O)NCCCCOc1ccc(C(=O)c2c(-c3ccc(O)cc3)sc3cc(O)ccc23)cc1 (stereo partly specified)
MCF7 [2]
  IC50: 11.4 µM
MCF7 [3]
  inhibition (INH): 63.5%
